The PolyMetriX glass transition set
± gives the standard deviation of the reports.

Question: For `*Nc1ccc(-c2c(-c3ccc(-c4ccccc4)cc3)cc(-c3ccc(-c4cc(-c5ccc(-c6ccccc6)cc5)c(-c5ccc(NC(=O)c6ccc(C(*)=O)cc6)cc5)c(-c5ccc(-c6ccccc6)cc5)c4)cc3)cc2-c2ccc(-c3ccccc3)cc2)cc1` (repeat unit), which glass transition temperature is on record?
Answer: 305.00 °C

Question: Which glass transition temperature does the source give for `*c1ccc(Oc2ccc(-c3ccc(Oc4ccc(N5C(=O)CC(=O)N(*)C5=S)cc4)cc3)cc2)cc1` (repeat unit) here?
Answer: 158.50 °C

Question: Which glass transition temperature does the source give for `*c1c(C)cc(C(C)(C)c2cc(C)c(S(*)(=O)=O)c(C)c2)cc1C` (repeat unit) here?
Answer: 230.00 °C

Question: For `*CC(*)(C)C(=O)OC1CCC1` (repeat unit), which glass transition temperature is on record?
Answer: 119.00 °C

Question: With `*CCCCOC(=O)CCCC(=O)O*` (repeat unit) as the molecule, how does the glass transition temperature read?
Answer: -36.50 °C

Question: Which glass transition temperature does the source give for `*CCCCCCOC(=O)OCCCCOC(=O)OCCCCCCOc1ccc(C(=O)c2ccc(O*)cc2)cc1` (repeat unit) here?
Answer: 2.10 °C

Question: Which glass transition temperature does the source give for `*Nc1ccc(CCNC(=O)CCCCC(*)=O)cc1` (repeat unit) here?
Answer: 115.00 °C

Question: Which glass transition temperature does the source give for `*SCC(=O)N/N=C/c1ccc(OCCCCCCCCCCOc2ccc(/C=N/NC(=O)CSc3nnc(*)s3)cc2OC)c(OC)c1` (repeat unit) here?
Answer: 156.00 °C

Question: Which glass transition temperature does the source give for `*CCCCCCOc1ccc(C(=O)N(C(=O)c2ccc(O*)cc2)c2cccc3ccccc23)cc1` (repeat unit) here?
Answer: 56.00 °C

Question: With `*Oc1ccc(C2(c3ccc(Oc4ccc5c(=O)n6c7cc(-c8ccc9c(c8)nc8c%10ccc(*)c%11cccc(c(=O)n98)c%11%10)ccc7nc6c6cccc4c56)cc3)c3ccccc3C(=O)c3ccccc32)cc1` (repeat unit) as the molecule, how does the glass transition temperature read?
Answer: 428.00 °C

Question: With `*Oc1c(Cl)cc(*)cc1Br` (repeat unit) as the molecule, how does the glass transition temperature read?
Answer: 188.50 °C

Question: With `*CC(*)(C)C(=O)OCC(=O)N1CCCC1` (repeat unit) as the molecule, how does the glass transition temperature read?
Answer: 144.00 °C

Question: With `*Oc1c(C)cc(C(C)(C)c2cc(C)c(OC(=O)CCCCCCCCC(*)=O)c(C)c2)cc1C` (repeat unit) as the molecule, how does the glass transition temperature read?
Answer: 45.00 °C

Question: Which glass transition temperature does the source give for `*CC(C)N1C(=O)C2C3C=CC(C4C(=O)N(*)C(=O)C34)C2C1=O` (repeat unit) here?
Answer: 212.00 °C

Question: For `*Oc1ccc(CC(NC(=O)Cc2ccc(OC(=O)CCCCCCC(*)=O)cc2)C(=O)OCCCCCCCC)cc1` (repeat unit), which glass transition temperature is on record?
Answer: 22.00 °C

Question: With `*c1ccc(OC(=O)c2ccc([Si](C)(C)c3ccc(C(=O)Oc4ccc(C5(*)OC(=O)c6ccccc65)cc4)cc3)cc2)cc1` (repeat unit) as the molecule, how does the glass transition temperature read?
Answer: 214.00 °C

Question: With `*C(=O)c1ccc2c(c1)C(=O)N(c1ccc(Oc3ccc(C(c4ccc(Oc5ccc(N6C(=O)c7ccc(*)cc7C6=O)cc5)cc4)(C(F)(F)F)C(F)(F)F)cc3)cc1)C2=O` (repeat unit) as the molecule, how does the glass transition temperature read?
Answer: 248.8 ± 18 °C

Question: Which glass transition temperature does the source give for `*CC(CCCCCCCCCCCCCCCC)C1C(=O)N(CCCCNC(=O)C(F)(F)C(F)(F)C(F)(F)C(F)(F)C(F)(F)C(F)(F)C(F)(F)F)C(=O)C1*` (repeat unit) here?
Answer: 63.00 °C

Question: For `*c1cc(CCOC(=O)NCCCC)c(*)s1` (repeat unit), which glass transition temperature is on record?
Answer: 67.50 °C

Question: Which glass transition temperature does the source give for `*Oc1ccc2ccc(Oc3ccc(C(=O)Nc4ccc(Oc5ccc(S(=O)(=O)c6ccc(Oc7ccc(NC(=O)c8ccc(*)cc8)cc7)cc6)cc5)cc4)cc3)cc2c1` (repeat unit) here?
Answer: 227.00 °C

Question: With `*CCCCCC(=O)Oc1ccc2ccc(OC(=O)c3ccc4c(c3)C(=O)N(*)C4=O)cc2c1` (repeat unit) as the molecule, how does the glass transition temperature read?
Answer: 113.00 °C

Question: For `*Nc1ccc(C(=O)c2ccc(NC(=O)c3cccc(C(*)=O)c3)cc2)cc1` (repeat unit), which glass transition temperature is on record?
Answer: 253.20 °C

Question: Which glass transition temperature does the source give for `*C(=O)Nc1ccc(Oc2cccc3c(NC(=O)c4ccc5c(c4)C(=O)N(c4ccc(Oc6cccc7c(N8C(=O)c9ccc(*)cc9C8=O)cccc67)cc4)C5=O)cccc23)cc1` (repeat unit) here?
Answer: 276.00 °C

Question: Which glass transition temperature does the source give for `*Oc1ccc(S(=O)(=O)c2ccc(Oc3ccc(Sc4ccc(*)cc4)cc3)cc2)cc1` (repeat unit) here?
Answer: 175.00 °C

Question: With `*Oc1ccc(NC(=O)c2cc(C(=O)Nc3ccc(*)cc3)c(C(=O)OCC)cc2C(=O)OCC)cc1` (repeat unit) as the molecule, how does the glass transition temperature read?
Answer: 208.1 °C

Question: Which glass transition temperature does the source give for `*c1ccc2c(c1)C(=O)N(c1c(C)cc(C3(c4cc(C)c(N5C(=O)c6ccc(C(*)(C(F)(F)F)C(F)(F)F)cc6C5=O)c(C)c4)c4ccccc4-c4ccccc43)cc1C)C2=O` (repeat unit) here?
Answer: 361.00 °C

Question: For `*=Nc1cccc(/N=C(/C=C/C(=*)c2ccccc2)c2ccccc2)c1` (repeat unit), which glass transition temperature is on record?
Answer: 178.00 °C

Question: For `*c1ccc(-c2nc3cc(-c4ccc5oc(*)nc5c4)ccc3o2)cc1` (repeat unit), which glass transition temperature is on record?
Answer: 430.00 °C

Question: For `*Oc1ccc(Cc2ccc(Cc3ccc(OC(*)=O)cc3)cc2)cc1` (repeat unit), which glass transition temperature is on record?
Answer: 79.50 °C

Question: Which glass transition temperature does the source give for `*c1ccc(C(c2ccc(N3C(=O)c4ccc(Oc5cc6ccccc6cc5Oc5ccc6c(c5)C(=O)N(*)C6=O)cc4C3=O)cc2)(C(F)(F)F)C(F)(F)F)cc1` (repeat unit) here?
Answer: 256.00 °C

Question: For `*C/C=C/c1cc(C(C)(C)c2ccc(O)c(/C=C/CC3CC(=O)N(c4ccc(Cc5ccc(N6C(=O)CC(*)C6=O)cc5)cc4)C3=O)c2)ccc1O` (repeat unit), which glass transition temperature is on record?
Answer: 206.00 °C

Question: With `*CC(*)(CC(=O)OCCCC)C(=O)OCCCC` (repeat unit) as the molecule, how does the glass transition temperature read?
Answer: 24.00 °C

Question: For `*CC(*)c1ccc(COCCC(F)(F)C(F)(F)C(F)(F)C(F)(F)C(F)(F)C(F)(F)C(F)(F)C(F)(F)F)cc1` (repeat unit), which glass transition temperature is on record?
Answer: 55.00 °C

Question: With `*CC(*)c1ccccc1C(F)(F)F` (repeat unit) as the molecule, how does the glass transition temperature read?
Answer: 165.00 °C

Question: Which glass transition temperature does the source give for `*CCOCCOCCOc1cccc(NC(=O)c2ccc(C(=O)Nc3cccc(O*)c3)cc2)c1` (repeat unit) here?
Answer: 116.00 °C

Question: Which glass transition temperature does the source give for `*O[Si](C)(C)O[Si](C)(C)O[Si](C)(C)OC(C)CCC(*)C` (repeat unit) here?
Answer: -90.00 °C

Question: With `*CCCCCCCCCCOc1ccc(OC(=O)c2ccc(OCCOCCOCCOc3ccc(C(=O)Oc4ccc(O*)cc4)cc3)cc2)cc1` (repeat unit) as the molecule, how does the glass transition temperature read?
Answer: 64.00 °C

Question: With `*Oc1cc(Br)c(C(C)(C)c2c(Br)cc(OC(*)=O)cc2Br)c(Br)c1` (repeat unit) as the molecule, how does the glass transition temperature read?
Answer: 267.00 °C

Question: With `*Oc1ccc(Oc2ccc(/C=N/c3ccc(/N=C/c4ccc(*)cc4)cc3)cc2)cc1` (repeat unit) as the molecule, how does the glass transition temperature read?
Answer: 117.00 °C

Question: With `*Oc1ccc(Oc2ccc(C(=O)c3ccccc3-c3ccccc3C(=O)c3ccc(*)cc3)cc2)cc1` (repeat unit) as the molecule, how does the glass transition temperature read?
Answer: 175.00 °C

Question: For `*c1ccc(NC(=O)Nc2ccc(NC(=O)Nc3ccc(-c4nc(-c5ccc(-c6nc(-c7ccc([N+](=O)[O-])cc7)c(-c7ccc([N+](=O)[O-])cc7)[nH]6)cc5)[nH]c4*)cc3)cc2)cc1` (repeat unit), which glass transition temperature is on record?
Answer: 272.00 °C

Question: With `*CCCCCCOC(=O)OCCCCCCCCCCOC(=O)OCCCCCCOc1ccc(C(=O)c2ccc(O*)cc2)cc1` (repeat unit) as the molecule, how does the glass transition temperature read?
Answer: -13.00 °C

Question: For `*C/C=C/COC(=O)C(Cc1ccccc1)NC(=O)CCCCC(=O)NC(Cc1ccccc1)C(=O)O*` (repeat unit), which glass transition temperature is on record?
Answer: 61.00 °C

Question: With `*Oc1ccc(C2(c3ccc(OC(=O)c4ccc(Oc5ccc(C6(c7ccc(Oc8ccc(C(*)=O)cc8)cc7)CCC(C(C)(C)C)CC6)cc5)cc4)cc3)CC3CC2C2CCCC32)cc1` (repeat unit) as the molecule, how does the glass transition temperature read?
Answer: 181.00 °C

Question: For `*O[Si](*)(C)CCCCCCCCCCC(=O)Oc1ccc(C(=O)Oc2ccc(-c3ccc(OCC(C)CC)cc3)cc2)cc1` (repeat unit), which glass transition temperature is on record?
Answer: 26.70 °C

Question: With `*CC(*)(F)C(=O)OCCC(F)(F)C(F)(F)C(F)(F)C(F)(F)C(F)(F)C(F)(F)F` (repeat unit) as the molecule, how does the glass transition temperature read?
Answer: 53.00 °C

Question: For `*/C=C/C1CC(*)C(C(=O)OC)C1` (repeat unit), which glass transition temperature is on record?
Answer: 65.00 °C

Question: With `*Oc1ccc(NC(=O)CCCCCC(=O)Nc2ccc(*)cc2)cc1` (repeat unit) as the molecule, how does the glass transition temperature read?
Answer: 180.00 °C

Question: Which glass transition temperature does the source give for `*Oc1ccc(S(=O)(=O)c2ccc(Oc3ccc(C(C)(c4ccccc4)c4ccc(*)cc4)cc3)cc2)cc1` (repeat unit) here?
Answer: 207.00 °C

Question: For `*c1ccc(Oc2ccc(C(=O)c3ccc(Oc4ccc(-c5c6c(c(*)c7ccccc57)C(=O)N(c5ccc(F)cc5)C6=O)cc4)cc3)cc2)cc1` (repeat unit), which glass transition temperature is on record?
Answer: 290.00 °C

Question: With `*CC(*)(C)C(=O)OCCCCCCCCOc1ccc(/N=N/c2ccc(C#N)cc2)cc1` (repeat unit) as the molecule, how does the glass transition temperature read?
Answer: 35.00 °C

Question: For `*CCOCC(=O)O*` (repeat unit), which glass transition temperature is on record?
Answer: -12.60 °C

Question: With `*CC(COc1c(Cl)cc(C(C)(C)c2cc(Cl)c(O*)c(Cl)c2)cc1Cl)OC(C)=O` (repeat unit) as the molecule, how does the glass transition temperature read?
Answer: 100.00 °C

Question: For `*c1ccc(Oc2ccc(S(=O)(=O)c3ccc(Oc4ccc(N5C(=O)c6ccc(S(=O)(=O)c7ccc8c(c7)C(=O)N(*)C8=O)cc6C5=O)cc4)cc3)cc2)cc1` (repeat unit), which glass transition temperature is on record?
Answer: 274.00 °C

Question: With `*CC(O)CN(*)c1cc(C)c(/N=N/c2ccc(C#N)cc2)c(C)c1` (repeat unit) as the molecule, how does the glass transition temperature read?
Answer: 150.00 °C

Question: With `*c1cccc(-c2nc3ccc(-c4ccc5nc(*)[nH]c5c4)cc3[nH]2)c1` (repeat unit) as the molecule, how does the glass transition temperature read?
Answer: 420.00 °C

Question: For `*CCCP(CCCNC(=O)CCCCC(=O)N*)c1ccccc1` (repeat unit), which glass transition temperature is on record?
Answer: 49.00 °C

Question: Which glass transition temperature does the source give for `*CCN(CCOC(=O)Nc1ccc(C)c(NC(=O)O*)c1)c1ccc(/C=C/c2cc[n+](CCCC)cc2)cc1` (repeat unit) here?
Answer: 121.00 °C

Question: Which glass transition temperature does the source give for `*CC(*)n1ccc2ccccc21` (repeat unit) here?
Answer: 19.00 °C

Question: Which glass transition temperature does the source give for `*c1ccc(Oc2ccc(C3(c4ccc(Oc5ccc(N6C(=O)c7ccc(Oc8ccc(C9(c%10ccc(Oc%11ccc%12c(c%11)C(=O)N(*)C%12=O)cc%10)CCCCCCCCCCC9)cc8)cc7C6=O)cc5)cc4)CCC(C(C)(C)C)CC3)cc2)cc1` (repeat unit) here?
Answer: 254.00 °C

Question: Which glass transition temperature does the source give for `*Nc1ccc(-c2ccc(NC(=O)c3cccc(C(*)=O)c3)c(OC)c2)cc1OC` (repeat unit) here?
Answer: 218.20 °C

Question: Which glass transition temperature does the source give for `*O[Si](*)(C)CCc1cc(C(=O)Oc2ccc(OCCCC)cc2)ccc1C(=O)Oc1ccc(OCCCC)cc1` (repeat unit) here?
Answer: 92.00 °C

Question: For `*Oc1ccc(C(C)(C)c2ccc(OC(=O)c3ccc(OCCCCCCCCCCOc4ccc(C(*)=O)cc4)cc3)cc2)cc1` (repeat unit), which glass transition temperature is on record?
Answer: 77.00 °C

Question: For `*c1ccc(Oc2ccc(C(=O)c3ccc(Oc4ccc(-c5nnc(*)c6c(-c7ccc(F)cc7)c(-c7ccc(F)cc7)c(-c7ccc(F)cc7)c(-c7ccc(F)cc7)c56)cc4)cc3)cc2)cc1` (repeat unit), which glass transition temperature is on record?
Answer: 313.00 °C
